Where two headings read alike, the source gives them in different places.
Experiments:
[1] = molecular target: T1, catalytic domain of human Bub1 (amino acids 704-1085) (Homo sapiens, UniProt O43683); experiment: Bub1 kinase assay (TR-FRET); format: biochemical
T1 construct: catalytic domain of human Bub1 (amino acids 704-1085); His6 (N); made in house; host or cells: Hi5 insect cells
Procedure: To this end, 100-fold concentrated compound solutions (in DMSO) were previously prepared by serial dilution (1:3.4) of 2 mM stocks in a clear low volume 384-well source microtiter plate (Greiner Bio-One, Frickenhausen, Germany), from which 50 nL of compounds were transferred into a black low volume test microtiter plate from the same supplier. […] The resulting mixture (5 μL final volume) was incubated at 22° C. during 60 min., and the reaction was stopped by the addition of 5 μL of an aqueous EDTA-solution (50 mM EDTA, in 100 mM HEPES pH 7.5 and 0.2% (w/v) bovine serum albumin) which also contained the TR-FRET detection reagents (0.2 μM streptavidin-XL665 [Cisbio Bioassays, Codolet, France] and 1 nM anti-phoshoSerine antibody [Merck Millipore, cat. #35-001] and 0.4 nM LANCE EU-W1024 labeled anti-mouse IgG antibody [Perkin-Elmer, product no. AD0077, alternatively a Terbium-cryptate-labeled anti-mouse IgG antibody from Cisbio Bioassays can be used]). The stopped reaction mixture was further incubated 1 h at 22° C. in order to allow the formation of complexes between peptides and detection reagents. Subsequently, the amount of product was evaluated by measurement of the resonance energy transfer from the Eu-chelate-antibody complex recognizing the Phosphoserine residue to the streptavidin-XL665 bound to the biotin moiety of the peptide.

[2] = system: HeLa cell line; experiment: Proliferation assay (HeLa cell line); format: cell-based; conditions: Homo sapiens, 96 h, read-out: Biological Assay 2: Proliferation assay (HeLa cell line) median IC50
Procedure: (§1) Cultivated tumor cells (cells were ordered from ATCC, except HeLa-MaTu and HeLa-MaTu-ADR, which were ordered from EPO-GmbH, Berlin) were plated at a density of 1000 to 5000 cells/well, depending on the growth rate of the respective cell line, in a 96-well multititer plate in 200 μL of their respective growth medium supplemented 10% fetal calf serum. After 24 hours, the cells of one plate (zero-point plate) were stained with crystal violet (see below), while the medium of the other plates was replaced by fresh culture medium (200 μL), to which the test substances were added in various concentrations (0 μM, as well as in the range of 0.001-10 μM; the final concentration of the solvent dimethyl sulfoxide was 0.5%). The cells were incubated for 4 days in the presence of test substances. Cell proliferation was determined by staining the cells with crystal violet: the cells were fixed by adding 20 μL/measuring point of an 11% glutaric aldehyde solution for 15 minutes at room temperature. After three washing cycles of the fixed cells with water, the plates were dried at room temperature. The cells were stained by adding 100 μL/measuring point of a 0.1% crystal violet solution (pH 3.0). After three washing cycles of the stained cells with water, the plates were dried at room temperature. The dye was dissolved by adding 100 μl/measuring point of a 10% acetic acid solution. Absorbtion was determined by photometry at a wavelength of 595 nm. The change of cell number, in percent, was calculated by normalization of the measured values to the absorbtion values of the zero-point plate (=0%) and the absorbtion of the untreated (0 μm) cells (=100%). The IC50 values were determined by means of a 4 parameter fit.

[3] = system: HeLa-MaTu-ADR cell line; experiment: Proliferation assay (HeLa-MaTu-ADR cell line); format: cell-based; conditions: 96 h, read-out: Biological Assay 2: Proliferation assay (HeLa-MaTu-ADR cell line) median IC50
Procedure: as §1

[4] = system: NCl-H460 cell line; experiment: Proliferation assay (NCI-H460 cell line); format: cell-based; conditions: Homo sapiens, NCI-H460, 96 h, read-out: Biological Assay 2: Proliferation assay (NCl-H460 cell line) median IC50
Procedure: as §1

[5] = system: DU145 cell line; experiment: Proliferation assay (DU145 cell line); format: cell-based; conditions: Homo sapiens, DU-145, 96 h, read-out: Biological Assay 2: Proliferation assay (DU145 cell line) median IC50
Procedure: as §1

[6] = system: Caco2 cell line; experiment: Proliferation assay (Caco2 cell line); format: cell-based; conditions: Homo sapiens, Caco-2, 96 h, read-out: Biological Assay 2: Proliferation assay (Caco2 cell line) median IC50
Procedure: as §1

[7] = system: B16F10 cell line; experiment: Proliferation assay (B16F10 cell line); format: cell-based; conditions: Mus musculus, B16-F10, 96 h, read-out: Biological Assay 2: Proliferation assay (B16F10 cell line) median IC50
Procedure: as §1

[8] = 10 μM ATP, 1 μM peptide substrate, TR-FRET, read-out: Biological Assay 1: Bub1 kinase assay median IC50
[9] = 4 days incubation, crystal violet staining
[10] = HeLa-MaTu-ADR, 4 days incubation, crystal violet staining
[11] = NCl-H460, 4 days incubation, crystal violet staining
[12] = DU145, 4 days incubation, crystal violet staining
[13] = Caco2, 4 days incubation, crystal violet staining
[14] = B16F10, 4 days incubation, crystal violet staining

T1 sequence (O43683 704-1085): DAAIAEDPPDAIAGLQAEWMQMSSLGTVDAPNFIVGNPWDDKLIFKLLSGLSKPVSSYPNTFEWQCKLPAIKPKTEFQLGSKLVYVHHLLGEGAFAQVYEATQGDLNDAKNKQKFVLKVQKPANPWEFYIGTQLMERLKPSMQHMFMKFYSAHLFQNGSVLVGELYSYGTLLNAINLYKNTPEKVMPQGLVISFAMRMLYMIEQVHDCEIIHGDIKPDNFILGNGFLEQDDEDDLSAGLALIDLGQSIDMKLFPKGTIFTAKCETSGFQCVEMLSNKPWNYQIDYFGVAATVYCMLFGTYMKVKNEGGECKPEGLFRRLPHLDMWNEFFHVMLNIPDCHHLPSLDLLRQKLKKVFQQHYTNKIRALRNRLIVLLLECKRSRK

| Compound | IC50 [1, 8] [µM] | IC50 [2] [µM] | IC50 [3] [µM] | IC50 [4] [µM] | IC50 [5] [µM] | IC50 [6] [µM] | IC50 [7] [µM] | IC50 [1] [µM] | IC50 [2, 9] [µM] | IC50 [3, 10] [µM] | IC50 [4, 11] [µM] | IC50 [5, 12] [µM] | IC50 [6, 13] [µM] | IC50 [7, 14] [µM] |
| --- | --- | --- | --- | --- | --- | --- | --- | --- | --- | --- | --- | --- | --- | --- |
| CCOc1cc(F)c(Cn2nc(-c3nc(Nc4ccncn4)cc(Nc4ccncn4)n3)c(C)c2C2CC2)c(F)c1 [Example 2-2-3, 2-[5-cyclopropyl-1-(4-ethoxy-2,6-difluorobenzyl)-4-methyl-1H-pyrazol-3-yl]-N,N′-di(pyrimidin-4-yl)pyrimidine-4,6-diamine] | 0.02 | 0.56 | 0.7 | 1.6 | 2.1 | 2.6 | 0.5 |  |  |  |  |  |  |  |
| CCOc1cc(F)c(Cn2nc(-c3nc(Nc4ccncc4)c(OCCOC)c(Nc4ccncc4)n3)c(C)c2C2CC2)c(F)c1 [Example 2-2-12, 2-[5-cyclopropyl-1-(4-ethoxy-2,6-difluorobenzyl)-4-methyl-1H-pyrazol-3-yl]-5-(2-methoxyethoxy)-N,N′-di(pyridin-4-yl)pyrimidine-4,6-diamine] | 0.48 | 0.97 | 0.73 | 1.2 | 1.7 | 1.1 | 0.4 |  |  |  |  |  |  |  |
| CCNC(=O)Nc1cc(Nc2ccncc2)nc(-c2nn(Cc3c(F)cc(OCC)cc3F)c(C3CC3)c2C)n1 [Example 2-1-10, 1-{2-[5-cyclopropyl-1-(4-ethoxy-2,6-difluorobenzyl)-4-methyl-1H-pyrazol-3-yl]-6-(pyridin-4-ylamino)pyrimidin-4-yl}-3-ethylurea] | 0.048 | 1.7 | 1.1 | 1.5 | 2.8 | 1.4 | 1.2 |  |  |  |  |  |  |  |
| CCOc1cc(F)c(Cn2nc(-c3nc(Nc4ccncc4)c(N4CCOCC4)c(Nc4ccncc4)n3)c(C)c2C2CC2)c(F)c1 [Example 2-2-6, 2-[5-cyclopropyl-1-(4-ethoxy-2,6-difluorobenzyl)-4-methyl-1H-pyrazol-3-yl]-5-(morpholin-4-yl)-N,N′-di(pyridin-4-yl)pyrimidine-4,6-diamine] |  |  |  |  |  |  |  | 0.22 | 7 | 0.82 | 1.1 | 1.9 | 2.6 | 0.99 |
| CCOc1cc(F)c(Cn2nc(-c3nc(Nc4ccncn4)nc(Nc4ccncn4)n3)c(C)c2C2CC2)c(F)c1 [Example 2-2-9, 6-[5-cyclopropyl-1-(4-ethoxy-2,6-difluorobenzyl)-4-methyl-1H-pyrazol-3-yl]-N,N′-di(pyrimidin-4-yl)-1,3,5-triazine-2,4-diamine] |  | 1.7 |  |  |  |  |  | 1.7 |  | 10 | 9.9 | 3.2 | 3.5 | 8.8 |
| CCOc1cc(F)c(Cn2nc(-c3nc(N)c(OC)c(Nc4ccncn4)n3)c(C)c2C2CC2)c(F)c1 [Example 2-1-5, 2-[5-cyclopropyl-1-(4-ethoxy-2,6-difluorobenzyl)-4-methyl-1H-pyrazol-3-yl]-5-methoxy-N-(pyrimidin-4-yl)pyrimidine-4,6-diamine] | 0.0053 | 5.1 | 3.5 | 7.4 | 6.9 | 1.9 | 1.8 |  |  |  |  |  |  |  |
| CCOc1cc(F)c(Cn2nc(-c3nc(Nc4ccncn4)c(NC(=O)COC)c(Nc4ccncn4)n3)c(C)c2C2CC2)c(F)c1 [Example 2-2-15, N-{2-[5-cyclopropyl-1-(4-ethoxy-2,6-difluorobenzyl)-4-methyl-1H-pyrazol-3-yl]-4,6-bis(pyrimidin-4-ylamino)pyrimidin-5-yl}-2-methoxyacetamide] |  |  |  |  |  |  |  | 0.042 | 4.7 |  |  |  |  |  |
| CCOc1cc(F)c(Cn2nc(-c3nc(N)c(N4CCOCC4)c(Nc4ccncn4)n3)c(C)c2C2CC2)c(F)c1 [Example 2-1-7, 2-[5-cyclopropyl-1-(4-ethoxy-2,6-difluorobenzyl)-4-methyl-1H-pyrazol-3-yl]-5-(morpholin-4-yl)-N-(pyrimidin-4-yl)pyrimidine-4,6-diamine] | 0.0098 | 5.3 |  |  |  |  |  |  |  |  |  |  |  |  |
| CCOc1cc(F)c(Cn2nc(-c3nc(N)nc(Nc4ccncn4)n3)c(C)c2C2CC2)c(F)c1 [Example 2-1-9, 6-[5-cyclopropyl-1-(4-ethoxy-2,6-difluorobenzyl)-4-methyl-1H-pyrazol-3-yl]-N-(pyrimidin-4-yl)-1,3,5-triazine-2,4-diamine] |  |  |  |  |  |  |  | 0.012 | 6 |  |  |  |  |  |
| CCOc1cc(F)c(Cn2nc(-c3nc(Nc4ccnnc4)cc(Nc4ccnnc4)n3)c(C)c2C2CC2)c(F)c1 [Example 2-2-10, 2-[5-cyclopropyl-1-(4-ethoxy-2,6-difluorobenzyl)-4-methyl-1H-pyrazol-3-yl]-N,N′-di(pyridazin-4-yl)pyrimidine-4,6-diamine] |  |  |  |  |  |  |  | 1 | 10 |  |  |  |  |  |
